≈ marks a conversion by molar mass, not a printed value. Read-outs that look alike come from different tables or passages of the source. Some results are limits rather than exact numbers.

What is called MBC is the smallest concentration meeting the test's criterion for killing.

For one assay, the system named is B. thailandensis. Put plainly: microbe, parasite or virus in culture. Particulars: for MIC90: Burkholderia thailandensis, read-out: MIC90 B. thailandensis; for Dilutions improvement shift on B. thailandensis MIC90 (between pH 7 and pH 5): pH 7 versus pH 5. In kind it is cell-based, Burkholderia thailandensis.
Assay [1] concerns A. baumannii ATCC 19606. The assay is described as follows: MIC determination for Acinetobacter strains (Example 3). Particulars: ATCC19606, reference strain. It counts as cell-based.
In the next assay the test system is A. baumannii J2. The assay is described as above. It counts as cell-based. Particulars: LEV R, CIP R.
A further assay concerns A. baumannii A489. The description is as above. Particulars: LEV R, CIP R, MRP R, IMP R, AMK R, TET R. It counts as cell-based.
Assay [2] concerns A. baumannii A390. The assay is described as above. In kind it is cell-based. Particulars: LEV R, CIP R, MRP R, IPM I, AMK R, TET I.
Assay [3] concerns A. baumannii A473. Described as above. Particulars: LEV R, CIP R, MRP R, IMP R, AMK R, TET R. In kind it is cell-based.
The test system of assay [4] is A. baumannii A387. Put plainly: MIC without and with sub-inhibitory polymyxin B (Example 4). It counts as cell-based, Acinetobacter baumannii. Particulars: Acinetobacter baumannii, A387, A. baumannii A387, without polymyxin B, read-out: MIC without PB.
Assay [5] deals with A. baumannii A390. Described as above. It counts as cell-based, Acinetobacter baumannii. Particulars: Acinetobacter baumannii, A390, A. baumannii A390, without polymyxin B, read-out: MIC without PB.
The next assay relates to A. baumannii A401. The assay is described as above. It counts as cell-based, Acinetobacter baumannii. Particulars: for MIC ratio without/with polymyxin B: A baumannii A 401, ratio MIC without PB to MIC + PB, PB 0.06 μg/ml; for MIC: Acinetobacter baumannii, A401, A baumannii A 401, without polymyxin B, read-out: MIC without PB.
The test system of assay [6] is A. baumannii A473. Described as above. In kind it is cell-based, Acinetobacter baumannii. Particulars: Acinetobacter baumannii, A473, A. baumannii A473, without polymyxin B, read-out: MIC without PB.
In assay [7] the test system is A. baumannii ATCC 19606. Put plainly: Preliminary MBC without and with sub-inhibitory polymyxin B (Example 4). In kind it is cell-based, Acinetobacter baumannii. Particulars: Acinetobacter baumannii, ATCC19606, A. baumannii ATCC 19606, without polymyxin B, preliminary MBC, read-out: MBC without PB.
Assay [8] deals with A. baumannii A387. Described as above. Particulars: Acinetobacter baumannii, A387, A. baumannii A387, without polymyxin B, read-out: MBC without PB. In kind it is cell-based, Acinetobacter baumannii.
The test system of the next assay is E. coli 25922. Put plainly: MIC, standard panel of Gram-positive and Gram-negative bacteria (CLSI). It counts as cell-based, Escherichia coli. Particulars: Escherichia coli, 25922; CAMHB; read-out: MIC E. coli 25922.
The subject of the next assay is A. Baumanii OXA-51. Put plainly: MIC, panel of quinolone-resistant strains (CLSI). Particulars: Acinetobacter baumannii; CIP R, ESBL. In kind it is cell-based.
Another assay has as its system S. pneumoniae 1027. Put plainly: MIC, panel of quinolone-resistant strains (CLSI). It counts as cell-based. Particulars: Streptococcus pneumoniae, LEV R.
For assay [9], the system named is 11 strains of A. baumannii and one strain of Acinetobacter sp. Put plainly: Preliminary MBC without and with sub-inhibitory polymyxin B, whole panel (Example 4; also strains not listed separately). In kind it is cell-based. Particulars: Acinetobacter baumannii, read-out: MBC without PB.
Another assay deals with E. coli IMP. The assay is described as follows: microbe, parasite or virus in culture. Particulars: Escherichia coli, read-out: MIC E. coli IMP.
The subject of another assay is S. aureus 25923. The assay is described as follows: MIC, standard panel of Gram-positive and Gram-negative bacteria (CLSI). In kind it is cell-based, Staphylococcus aureus. Particulars: Staphylococcus aureus, 25923; CAMHB; read-out: MIC S. aureus 25923.
The subject of another assay is S. epidermis 12228. Described as above. It counts as cell-based, Staphylococcus epidermis. Particulars: Staphylococcus, 12228; CAMHB; read-out: MIC S. epidermis 12228.
The subject of a further assay is P. aeruginosa 27853. The assay is described as above. It counts as cell-based, Pseudomonas aeruginosa. Particulars: Pseudomonas aeruginosa, 27853; CAMHB; read-out: MIC P. aeruginosa 27853.
In assay [10] the test system is A. baumannii A387. Put plainly: MIC determination for Acinetobacter strains (Example 3). In kind it is cell-based. Particulars: LEV I, CIP R, IPM R, AMK R, TET R.
A further assay relates to S. aureus SMITH. The assay is described as follows: MIC, panel of quinolone-resistant strains (CLSI). In kind it is cell-based. Particulars: Staphylococcus aureus; CIP R.
Setting [11] is: A. baumannii A14, without polymyxin B, 1st experiment.
Setting [12] is: A. baumannii A14, without polymyxin B, 2nd experiment.

In the case of `Cc1c(-c2ccc(N)c(F)c2)ccn2c(=O)c(C(=O)O)cc(C3CC3)c12` [Compound 1, 8-(3-fluoro-4-amino-phenyl)-1-cyclopropyl-9-methyl-4-oxo-quinolizine-3-carboxylic acid], in the assay with B. thailandensis, the MIC90 was < 0.048 µg/mL. In addition, the “Dilutions improvement shift on B. thailandensis MIC90 (between pH 7 and pH 5)” value in the assay with B. thailandensis is “Yes, 4×”. Also, the MIC in the assay on A. baumannii ATCC 19606 [1] is 0.25 µg/mL (≈ 0.709 µM); with A. baumannii J2, 8 µg/mL (≈ 22.7 µM); with A. baumannii A489 it was 4 µg/mL (≈ 11.4 µM); in the assay with A. baumannii A390 [2], 16 µg/mL (≈ 45.4 µM); in the assay on A. baumannii A473 [3], 4 µg/mL (≈ 11.4 µM); in the assay with A. baumannii A387 [4] (2nd experiment, visual reading) it was 4 µg/mL (≈ 11.4 µM). Also, the MIC in the assay with A. baumannii A390 [5] (1st experiment) amounted to 16 µg/mL (≈ 45.4 µM); with A. baumannii A390 [5] (2nd experiment, visual reading), 16 µg/mL (≈ 45.4 µM); in the assay on A. baumannii A401 (1st experiment), 4 µg/mL (≈ 11.4 µM); in the assay with A. baumannii A401 (2nd experiment, visual reading), 16 µg/mL (≈ 45.4 µM); in the assay with A. baumannii A473 [6] (1st experiment) it was 4 µg/mL (≈ 11.4 µM); in the assay with A. baumannii A473 [6] (2nd experiment, visual reading) it was 8 µg/mL (≈ 22.7 µM). The MIC ratio without/with polymyxin B with A. baumannii A401 (2nd experiment) was ≥ 512 µg/mL. For the same compound, the MBC in the assay with A. baumannii ATCC 19606 [7] (2nd experiment) worked out at 0.25 µg/mL (≈ 0.709 µM); in the assay with A. baumannii ATCC 19606 [7] (1st experiment), 0.25 µg/mL (≈ 0.709 µM); in the assay on A. baumannii A387 [8] (2nd experiment) it was 4 µg/mL (≈ 11.4 µM).

Consider `Cc1c(-c2ccc(CN)c(F)c2)ccn2c(=O)c(C(=O)O)cc(C3CC3)c12` [Compound 4, 8-(3-fluoro-4-aminomethyl-phenyl)-1-cyclopropyl-9-methyl-4-oxo-quinolizine-3-carboxylic acid], for which the MIC in the assay on E. coli 25922 is < 0.03 µg/mL; with A. Baumanii OXA-51, 16 µg/mL (≈ 43.7 µM); against S. pneumoniae 1027, 1 µg/mL (≈ 2.73 µM); with A. baumannii A401 (1st experiment), 16 µg/mL (≈ 43.7 µM); in the assay on A. baumannii A401 (2nd experiment, visual reading), 16 µg/mL (≈ 43.7 µM); in the assay on E. coli IMP, < 0.008 µg/mL. Further, the MBC was 16 µg/mL (≈ 43.7 µM) in [9] (setting [11]); > 32 µg/mL in assay [9] (setting [12]); 32 µg/mL (≈ 87.3 µM) in assay [9] (NCTC13301, A. baumannii NCTC 13301, without polymyxin B, 2nd experiment).

For `Cc1c(-c2ccc(N)cc2)c(F)cn2c(=O)c(C(=O)O)cc(C3CC3)c12` [Compound 7, 8-(4-amino-phenyl)-1-cyclopropyl-7-fluoro-9-methyl-4-oxo-quinolizine-3-carboxylic acid], the MIC90 in the assay with B. thailandensis was < 0.048 µg/mL. The “Dilutions improvement shift on B. thailandensis MIC90 (between pH 7 and pH 5)” value in the assay with B. thailandensis is “Yes, 4×”. Further, the MIC in the assay with S. aureus 25923 was < 0.008 µg/mL; in the assay with S. epidermis 12228, < 0.008 µg/mL; with P. aeruginosa 27853 it was 4 µg/mL (≈ 11.4 µM); in the assay with A. Baumanii OXA-51, 8 µg/mL (≈ 22.7 µM); in the assay on S. pneumoniae 1027, 4 µg/mL (≈ 11.4 µM); in the assay on A. baumannii A489, 8 µg/mL (≈ 22.7 µM). Further, the MIC in the assay with A. baumannii A390 [2] stood at 8 µg/mL (≈ 22.7 µM); in the assay with A. baumannii A473 [3], 4 µg/mL (≈ 11.4 µM); in the assay with A. baumannii A390 [5] (1st experiment), 8 µg/mL (≈ 22.7 µM); in the assay on A. baumannii A401 (1st experiment) it was 4 µg/mL (≈ 11.4 µM); in the assay on A. baumannii A401 (2nd experiment, visual reading), 8 µg/mL (≈ 22.7 µM); in the assay with A. baumannii A473 [6] (1st experiment), 4 µg/mL (≈ 11.4 µM). Besides, the MIC in the assay on A. baumannii A473 [6] (2nd experiment, visual reading) was 4 µg/mL (≈ 11.4 µM); in the assay on E. coli IMP, < 0.008 µg/mL. The MBC in the assay on A. baumannii ATCC 19606 [7] (2nd experiment) stood at 0.25 µg/mL (≈ 0.709 µM).

For the compound `Cc1c(-c2cc(Cl)c(N)c(Cl)c2)ccn2c(=O)c(C(=O)O)cc(C3CC3)c12` [Compound 3, 8-(3,5-dichloro-4-amino-phenyl)-1-cyclopropyl-9-methyl-4-oxo-quinolizine-3-carboxylic acid], the MIC90 in the assay with B. thailandensis is < 0.048 µg/mL. For the same compound, the MIC in the assay with S. aureus 25923 is < 0.008 µg/mL; in the assay with E. coli 25922, < 0.03 µg/mL; in the assay with P. aeruginosa 27853, 2 µg/mL (≈ 4.96 µM); with A. Baumanii OXA-51, 8 µg/mL (≈ 19.8 µM); in the assay with S. pneumoniae 1027, 2 µg/mL (≈ 4.96 µM); against A. baumannii J2, 8 µg/mL (≈ 19.8 µM). Further, the MIC came out at 4 µg/mL (≈ 9.92 µM) against A. baumannii A489; 1 µg/mL (≈ 2.48 µM) in the assay with A. baumannii A387 [10]; 4 µg/mL (≈ 9.92 µM) in the assay with A. baumannii A473 [3]; 1 µg/mL (≈ 2.48 µM) with A. baumannii A387 [4] (1st experiment); 1 µg/mL (≈ 2.48 µM) with A. baumannii A387 [4] (2nd experiment, visual reading); 8 µg/mL (≈ 19.8 µM) in the assay with A. baumannii A401 (1st experiment). Moreover, the MIC in the assay on A. baumannii A401 (2nd experiment, visual reading) worked out at 16 µg/mL (≈ 39.7 µM); with A. baumannii A473 [6] (1st experiment), 4 µg/mL (≈ 9.92 µM); with A. baumannii A473 [6] (2nd experiment, visual reading) it was 8 µg/mL (≈ 19.8 µM). The MIC ratio without/with polymyxin B in the assay with A. baumannii A401 (2nd experiment) was determined as 128 µg/mL. Besides, the minimal bactericidal concentration (MBC) in the assay on A. baumannii A387 [8] (1st experiment) came to 1 µg/mL (≈ 2.48 µM); in the assay with A. baumannii A387 [8] (2nd experiment), 4 µg/mL (≈ 9.92 µM).

For the compound `C[C@H]1COc2c(N3CCN(C)CC3)c(F)cc3c(=O)c(C(=O)O)cn1c23` [Levofloxacin, reference compound], the MIC turned out to be 8 µg/mL (≈ 22.1 µM) against S. aureus SMITH, 16 µg/mL (≈ 44.3 µM) against S. pneumoniae 1027, 1 µg/mL (≈ 2.77 µM) in the assay with A. baumannii ATCC 19606 [1] and 32 µg/mL (≈ 88.6 µM) in the assay with A. baumannii J2. For the same compound, the MBC in assay [9] (setting [11]) came to 32 µg/mL (≈ 88.6 µM); in assay [9] (setting [12]), 32 µg/mL (≈ 88.6 µM); in assay [9] (NCTC13301, A. baumannii NCTC 13301, without polymyxin B, 1st experiment), 32 µg/mL (≈ 88.6 µM); with A. baumannii ATCC 19606 [7] (2nd experiment), 1 µg/mL (≈ 2.77 µM); in the assay with A. baumannii ATCC 19606 [7] (1st experiment), 0.5 µg/mL (≈ 1.38 µM).
